Test [1] can be described thus: Catalytic NO generation by ditelluride compounds via chemiluminescence NO analyzer (NOA). The format is biochemical. How it is done: FIG. 19A also depicts other measurements of catalytic NO generation by ditelluride compounds. […] The rate of NO generation slowly decreases with time to reach a steady-state that lasts until all of the GSNO is consumed.

A short description of test [2]: NO generation by diorgano ditelluride from GSNO and GSH monitored by NOA. The format is biochemical. To be noted: GSNO and GSH in PBS pH 7.4, EDTA, ambient temperature; FIG. 13.

Each structure is given as a SMILES string.

Turning to `O=C(O)c1ccc([Te][Te]c2ccc(C(=O)O)s2)s1` [DTDTCA 2, 5,5′-ditelluro-2,2′-dithiophenecarboxylic acid], the “NO signal upon adding catalytic amounts” value in test [1] (2.5 μM catalyst, GSNO 25 μM, GSH 100 μM in PBS buffer, FIG. 19A) is “relatively large signal appears quickly”. In addition, the “RSNO decomposition to NO without RSH” value in test [1] (absence of RSH, FIG. 19B) is listed as “decomposes RSNO to NO even in the absence of RSH”.

Regarding `O=C(O)CCCCC[Te][Te]CCCCCC(=O)O` [compound 2], the “NO generated relative to amount of catalyst used” value in test [2] is listed as “much more NO than the amount of diorgano ditelluride”.
